The values that follow come from ChEMBL document CHEMBL4043217, “A prodrug design for improved oral absorption and reduced hepatic interaction” (Bioorg Med Chem, 2017).

Series [1] deals with Rattus norvegicus. The series is described as follows: Estrogenic effect in ovariectomized adult female Wistar rat assessed as uterine weight level at 10 ug, po dosed from day 1 to 3 and measured on day 4 relative to untreated control. Type of series: functional.
For a further series, the target named is Carbonic anhydrase 2 (Homo sapiens, UniProt P00918).
Series [2] concerns Rattus norvegicus. Nature of the series: Estrogenic effect in ovariectomized adult female Wistar rat assessed as uterine weight level at 1 ug, po dosed from day 1 to 3 and measured on day 4 relative to untreated control. Type of series: functional.
Series [3] can be described thus: Prodrug conversion in human plasma assessed as esterase-mediated estradiol release by measuring saponification level after 10 mins by ELISA method. The series is classed as ADME. Particulars: isolated protein. On the technique in general: In an ELISA, binding on a coated surface is turned into a signal by an enzyme label.
Series [4] relates to Rattus norvegicus. Nature of the series: Estrogenic effect in ovariectomized adult female Wistar rat assessed as uterine weight level at 3 ug, po dosed from day 1 to 3 and measured on day 4 relative to untreated control. Type of series: functional.
The subject of series [5] is Rattus norvegicus. The series is described as follows: Increase in testosterone level in orally dosed male rat serum relative to testosterone-propionate. The series is classed as functional, organism-based.
The test system of series [6] is Rattus norvegicus. Nature of the series: AUC (0 to 3 hrs) in rat at 3 mg, po. The series is classed as ADME. Particulars: in vivo. On the set-up: time < 3 hr, dose 3 mg, route oral.
The nature of series [7]: Half life in Sprague-Dawley rat blood at 5 mg/kg, po. Type of series: ADME, organism-based.
Series [8] is described as follows: Clearance in Sprague-Dawley rat blood at 1 mg/kg, iv. The series is classed as ADME, organism-based.
Series [9] in a line: Oral bioavailability life in Sprague-Dawley rat blood at 5 mg/kg. Type of series: ADME, organism-based.
Series [10] can be described thus: Volume of distribution in Sprague-Dawley rat plasma at 1 mg/kg, iv. Type of series: ADME, organism-based.
The nature of series [11]: Clearance in Sprague-Dawley rat plasma at 1 mg/kg, iv. Type of series: ADME, organism-based.
Series [12] is described as follows: Volume of distribution in Sprague-Dawley rat blood at 1 mg/kg, iv. The series is classed as ADME, organism-based.
A short description of series [13]: Oral bioavailability life in Sprague-Dawley rat plasma at 5 mg/kg. Type of series: ADME, organism-based.
Series [14] is described as follows: Half life in Sprague-Dawley rat plasma at 5 mg/kg, po. Type of series: ADME, organism-based.
The target in the next series is T1, Estrogen receptor (Homo sapiens, UniProt P03372).
T1 sequence (P03372 whole entry): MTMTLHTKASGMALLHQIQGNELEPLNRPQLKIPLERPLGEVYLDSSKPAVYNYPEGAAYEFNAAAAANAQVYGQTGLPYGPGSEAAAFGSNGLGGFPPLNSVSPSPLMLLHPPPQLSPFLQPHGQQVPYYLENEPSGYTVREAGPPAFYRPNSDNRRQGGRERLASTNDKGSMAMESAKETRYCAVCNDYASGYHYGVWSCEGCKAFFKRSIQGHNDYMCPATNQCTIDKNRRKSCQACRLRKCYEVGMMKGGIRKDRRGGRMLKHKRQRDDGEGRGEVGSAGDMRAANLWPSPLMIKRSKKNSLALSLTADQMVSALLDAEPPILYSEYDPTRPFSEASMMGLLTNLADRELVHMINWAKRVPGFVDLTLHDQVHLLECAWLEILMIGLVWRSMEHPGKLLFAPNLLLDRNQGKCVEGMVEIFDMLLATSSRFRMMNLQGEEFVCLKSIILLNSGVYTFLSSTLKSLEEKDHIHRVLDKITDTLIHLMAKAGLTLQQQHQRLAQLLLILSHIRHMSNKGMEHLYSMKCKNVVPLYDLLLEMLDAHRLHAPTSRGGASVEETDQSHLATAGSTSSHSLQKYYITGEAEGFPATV
Nature of the series: Binding affinity to ER (unknown origin) expressed in UAS-bla GripTite 293 cells by Select screen competitive binding assay. The series is classed as cell-based.

The source made the active and inactive calls. No cut-off for these calls is given here.

Description for Carbonic anhydrase 2: Inhibition of human CA2 catalytic activity pre-incubated for 15 mins followed by 4-NPA substrate addition and measured every 12 to 15 secs for 5 mins by spectrophotometry

As for `C[C@]12CC[C@@H]3c4ccc(O)cc4CC[C@H]3[C@@H]1CC[C@@H]2OC(=O)[C@@H]1CCCN1C(=O)c1cccc(-c2cccc(S(N)(=O)=O)c2)c1`, the Activity in the series with Rattus norvegicus [1] turned out to be 216%. The IC50 (commonly the concentration that gives 50% inhibition) on Carbonic anhydrase 2 was found to be 10 µM.
As to `C[C@]12CC[C@@H]3c4ccc(O)cc4CC[C@H]3[C@@H]1CC[C@@H]2OC(=O)[C@H](Cc1ccccc1)NC(=O)c1ccc(S(N)(=O)=O)cc1`, the figures for the Activity with Rattus norvegicus [2] and in the series on Rattus norvegicus [1] were 95% and 117%, respectively. Further, the Drug metabolism in series [3] was 75%. The compound also came in with an IC50 at Carbonic anhydrase 2 of 0.1 µM.
For `C[C@]12CC[C@@H]3c4ccc(O)cc4CC[C@H]3[C@@H]1CC[C@@H]2OC(=O)[C@@H]1CCCN1C(=O)c1cccc(S(N)(=O)=O)c1`, it took 0.3 µM to reach half-maximal inhibition against Carbonic anhydrase 2 (IC50).
Consider `C[C@]12CC[C@@H]3c4ccc(O)cc4CC[C@H]3[C@@H]1CC[C@@H]2OC(=O)[C@@H]1CCCN1Cc1ccc(S(N)(=O)=O)cc1`, for which, in the series with Rattus norvegicus [1], the Activity is listed as 272%. Moreover, at Carbonic anhydrase 2, it took 0.129 µM to reach half-maximal inhibition (IC50).
On to `C[C@]12CC[C@@H]3c4ccc(O)cc4CC[C@H]3[C@@H]1CC[C@@H]2OC(=O)[C@@H]1CCCN1C(=O)c1ccc(S(N)(=O)=O)nc1`, for which the Activity in the series with Rattus norvegicus [1] is 259%. This compound also had a 50% inhibitory concentration (IC50) at Carbonic anhydrase 2 of 0.25 µM.
On to `C[C@H](NC(=O)c1ccc(S(N)(=O)=O)cc1)C(=O)O[C@H]1CC[C@H]2[C@@H]3CCc4cc(O)ccc4[C@H]3CC[C@]12C`, for which the Drug metabolism in series [3] is 70%. This compound also yielded an IC50 against Carbonic anhydrase 2 of 0.25 µM. Moreover, the Activity with Rattus norvegicus [4] came to 163%.
`Cc1cc(C(=O)N2CCC[C@H]2C(=O)O[C@H]2CC[C@H]3[C@@H]4CCc5cc(O)ccc5[C@H]4CC[C@]23C)ccc1S(N)(=O)=O`: in the series on Rattus norvegicus [1], the Activity was found to be 258%. At Carbonic anhydrase 2, this compound registered a 50% inhibitory concentration (IC50) of 0.21 µM.
For `CC(C)(NC(=O)c1ccc(S(N)(=O)=O)cc1)C(=O)O[C@H]1CC[C@H]2[C@@H]3CCc4cc(O)ccc4[C@H]3CC[C@]12C`, the values for the Activity with Rattus norvegicus [2] and in the series with Rattus norvegicus [1] were 107% and 97%, respectively. In series [3], the Drug metabolism turned out to be 97%. Moreover, at Carbonic anhydrase 2, the half-inhibitory concentration (IC50) came out at 0.232 µM.
Regarding `C[C@]12CC[C@@H]3c4ccc(O)cc4CC[C@H]3[C@@H]1CC[C@@H]2OC(=O)[C@@H]1CCCN1c1ccc(S(N)(=O)=O)cc1`, the Activity with Rattus norvegicus [1] amounted to 92%. On Carbonic anhydrase 2, this compound had an IC50 of 0.198 µM.
Take `C[C@]12CC[C@@H]3c4ccc(O)cc4CC[C@H]3[C@@H]1CC[C@@H]2OC(=O)[C@@H]1CCCN1C(=O)c1ccc(-c2ccc(S(N)(=O)=O)cc2)cc1`: the Activity in the series with Rattus norvegicus [1] worked out at 309%. Moreover, it took 0.29 µM to reach half-maximal inhibition at Carbonic anhydrase 2 (IC50).
For the compound `C[C@@H](C(=O)O[C@H]1CC[C@H]2[C@@H]3CCc4cc(O)ccc4[C@H]3CC[C@]12C)N(C)C(=O)c1ccc(S(N)(=O)=O)cc1`, the values for the Activity with Rattus norvegicus [2] and with Rattus norvegicus [1] were 145% and 289%, respectively. In series [3], the Drug metabolism stood at 84%. The compound further yielded an IC50 on Carbonic anhydrase 2 of 0.325 µM.
For the compound `C[C@]12CC[C@H]3[C@@H](CCC4=CC(=O)CC[C@@]43C)[C@@H]1CC[C@@H]2OC(=O)[C@@H]1CCCN1C(=O)c1ccc(S(N)(=O)=O)cn1`, the outcome in the series with Rattus norvegicus [5] was Active. The same compound registered an AUC in the series with Rattus norvegicus [6] of 330 ng/mL.
For the compound `C[C@]12CC[C@@H]3c4ccc(O)cc4CC[C@H]3[C@@H]1CC[C@@H]2OC(=O)[C@@H]1CCCN1C(=O)c1cccc(-c2ccc(S(N)(=O)=O)cc2)c1`, in the series with Rattus norvegicus [1], the Activity is given as 153%. The compound also returned an IC50 on Carbonic anhydrase 2 of 0.12 µM.
For `C[C@]12CC[C@@H]3c4ccc(O)cc4CC[C@H]3[C@@H]1CC[C@@H]2OC(=O)[C@@H]1CCCN1C(=O)c1coc(S(N)(=O)=O)c1`, the Activity in the series with Rattus norvegicus [1] is on record as 313%. In addition, the concentration for half-maximal inhibition (IC50) at Carbonic anhydrase 2 was found to be 0.007 µM.
On to `C[C@]12CC[C@@H]3c4ccc(O)cc4CC[C@H]3[C@@H]1CC[C@@H]2OC(=O)CNC(=O)c1ccc(S(N)(=O)=O)cc1`, for which the Drug metabolism in series [3] is reported as 87%. This compound returned a half-maximal inhibitory concentration (IC50) against Carbonic anhydrase 2 of 0.065 µM.
For `C[C@]12CC[C@@H]3c4ccc(O)cc4CC[C@H]3[C@@H]1CC[C@@H]2OC(=O)[C@@H]1CCCN1C(=O)c1ccc(S(N)(=O)=O)cc1`, the half-life (usually the time in which the quantity being followed falls by half) in series [7] was 4.9 h; in [14] it was 4.58 h. The clearance (as a rule, the rate of elimination divided by the concentration) came out at 0.232 L/h/kg in series [8] and 3.77 L/h/kg in series [11]. Further, the bioavailability amounted to 122% in [9] and 102% in series [13]. Further, the Activity with Rattus norvegicus [2] is 244%. For the same compound, the results for the Vd in series [10] and in series [12] were 5.68 L/kg and 0.24 L/kg, respectively. Further, on Estrogen receptor, a half-maximal effect (EC50) was put at 0.432 µM.
In the case of `C[C@]12CC[C@@H]3c4ccc(O)cc4CC[C@H]3[C@@H]1CC[C@@H]2OC(=O)[C@@H]1CCCN1S(N)(=O)=O`, the Activity in the series on Rattus norvegicus [1] was found to be 268%. At Carbonic anhydrase 2, this compound showed an IC50 of 10 µM.
Turning to `C[C@]12CC[C@@H]3c4ccc(O)cc4CC[C@H]3[C@@H]1CC[C@@H]2OC(=O)[C@@H]1CCCN1C(=O)Cc1ccc(S(N)(=O)=O)cc1`, the Activity with Rattus norvegicus [1] came to 267%. The compound also registered a 50% inhibitory concentration (IC50) against Carbonic anhydrase 2 of 0.5 µM.
For the compound `CC(C)[C@H](NC(=O)c1ccc(S(N)(=O)=O)cc1)C(=O)O[C@H]1CC[C@H]2[C@@H]3CCc4cc(O)ccc4[C@H]3CC[C@]12C`, the Activity in the series with Rattus norvegicus [2] is on record as 105%; with Rattus norvegicus [1] it was 267%. The Drug metabolism in [3] amounted to 89%. The same compound had a concentration for half-maximal inhibition (IC50) on Carbonic anhydrase 2 of 0.202 µM.
As for `C[C@]12CC[C@@H]3c4ccc(O)cc4CC[C@H]3[C@@H]1CC[C@@H]2OC(=O)[C@@H]1CCCN1C(=O)c1ccc(S(N)(=O)=O)cn1`, the Activity in the series on Rattus norvegicus [1] came to 268%. The compound further came in with an IC50 at Carbonic anhydrase 2 of 5 µM.
As to `C[C@]12CC[C@@H]3c4ccc(O)cc4CC[C@H]3[C@@H]1CC[C@@H]2OC(=O)[C@@H]1CCCN1C(=O)c1ccc(S(N)(=O)=O)o1`, the Activity in the series with Rattus norvegicus [1] worked out at 318%. At Carbonic anhydrase 2, this compound registered a half-maximal inhibitory concentration (IC50) of 0.25 µM.
